Experimental data taken from ChEMBL document CHEMBL1201862, “PubChem BioAssay data set” (2004).
Counter-ions that a name gives are not always drawn.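 In this assay, cells in 96-well plates receive the compound at five concentrations for 48 hours. Endpoints are linearly interpolated between the surrounding concentrations. Abbreviation: GI50, concentration required for 50% inhibition of growth.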 Calls of active or inactive are those of the source. No stated cut-off is given here; in the data, active = GI50 up to about 1.1 µM and inactive = higher.

Key:
Assay in all cases: growth of human tumour cells (NCI), 48 h
KM12 = tested on: KM12
SNB-75 = tested on: SNB-75
786-0 = tested on: 786-0
SK-OV-3 = tested on: SK-OV-3
Malme-3M = tested on: Malme-3M
NCI-H460 = tested on: NCI-H460
CCRF-CEM = tested on: CCRF-CEM
NCI/ADR-RES = tested on: NCI/ADR-RES
HOP-62 = tested on: HOP-62
M14 = tested on: M14
K562 = tested on: K562
SN12C = tested on: SN12C
HOP-92 = tested on: HOP-92
U-251 = tested on: U-251
BT-549 = tested on: BT-549
SNB-19 = tested on: SNB-19
NCI-H226 = tested on: NCI-H226
RXF 393 = tested on: RXF 393
IGROV-1 = tested on: IGROV-1
SK-MEL-5 = tested on: SK-MEL-5

| SMILES | GI50 (KM12) | GI50 (SNB-75) | GI50 (786-0) | GI50 (SK-OV-3) | GI50 (Malme-3M) | GI50 (NCI-H460) | GI50 (CCRF-CEM) | GI50 (NCI/ADR-RES) | GI50 (HOP-62) | GI50 (M14) | GI50 (K562) | GI50 (SN12C) | GI50 (HOP-92) | GI50 (U-251) | GI50 (BT-549) | GI50 (SNB-19) | GI50 (NCI-H226) | GI50 (RXF 393) | GI50 (IGROV-1) | GI50 (SK-MEL-5) |
| --- | --- | --- | --- | --- | --- | --- | --- | --- | --- | --- | --- | --- | --- | --- | --- | --- | --- | --- | --- | --- |
| Cc1cc2nc(O)c(C(C)C(=O)c3ccc(Cl)cc3)nc2cc1C (stereo not given) | 29.8 µM (inactive) | 35.4 µM (inactive) | 27.6 µM (inactive) | > 100 µM (inactive) | 71.6 µM (inactive) | 29.9 µM (inactive) | 26.7 µM (inactive) | 28.6 µM (inactive) | 49.8 µM (inactive) | 45.6 µM (inactive) | 40.6 µM (inactive) | 50.7 µM (inactive) | 59.3 µM (inactive) | 36.2 µM (inactive) | 54.5 µM (inactive) | 56.4 µM (inactive) | 35 µM (inactive) | 41.3 µM (inactive) | 61.9 µM (inactive) | 38.1 µM (inactive) |
| O=C1/C(=C(/Br)I)c2ccccc2-c2ccccc21 | 14.2 µM (inactive) | 15.5 µM (inactive) | 3.34 µM (inactive) | 15.7 µM (inactive) | 3.56 µM (inactive) | 17.8 µM (inactive) | 2.16 µM (inactive) | 9.02 µM (inactive) | 17.1 µM (inactive) | 9.95 µM (inactive) | 2.36 µM (inactive) | 16.2 µM (inactive) | 2.79 µM (inactive) | 12.6 µM (inactive) | 7.03 µM (inactive) | 13.9 µM (inactive) | 18.8 µM (inactive) | 3.21 µM (inactive) | 13.2 µM (inactive) | 16 µM (inactive) |
| CC(=O)c1cccc(NC2C(N)C(NC(=O)N(C)C)(C(C)O)C(C)(O)C2(O)COC(=O)c2c(C)cccc2O)c1 (stereo not given) | < 0.001 µM (active) | 0.0948 µM (active) | < 0.001 µM (active) | < 0.001 µM (active) | < 0.001 µM (active) | < 0.001 µM (active) | < 0.001 µM (active) | 0.0134 µM (active) | < 0.001 µM (active) | 0.0118 µM (active) | < 0.001 µM (active) | < 0.001 µM (active) | < 0.001 µM (active) | < 0.001 µM (active) | < 0.001 µM (active) | < 0.001 µM (active) | < 0.001 µM (active) | < 0.001 µM (active) | < 0.001 µM (active) | < 0.001 µM (active) |
| O=[N+]([O-])c1ccc(/C=N/n2c(CO)nc3ccccc32)o1 | 3.11 µM (inactive) | 24.6 µM (inactive) | 4.04 µM (inactive) | 18.2 µM (inactive) | 2.16 µM (inactive) | 3.29 µM (inactive) | 3.78 µM (inactive) | 15.7 µM (inactive) | 11.9 µM (inactive) | 4.17 µM (inactive) | 4.67 µM (inactive) | 5.35 µM (inactive) | 3.51 µM (inactive) | 13.9 µM (inactive) | 13.6 µM (inactive) | 15.8 µM (inactive) | 15.1 µM (inactive) | 5.07 µM (inactive) | 0.993 µM (active) | 2.14 µM (inactive) |
| CC(=O)OCc1ccc2oc(=O)c(C(=O)Oc3cccc(Cl)c3)cc2c1 | 61.5 µM (inactive) | 37.8 µM (inactive) | 36.1 µM (inactive) | > 100 µM (inactive) | > 100 µM (inactive) | 37.9 µM (inactive) | > 100 µM (inactive) | > 100 µM (inactive) | 99.1 µM (inactive) | 34.6 µM (inactive) | 23.9 µM (inactive) | 54.5 µM (inactive) | 20.6 µM (inactive) | > 100 µM (inactive) | > 100 µM (inactive) | 83 µM (inactive) | > 100 µM (inactive) | 33.7 µM (inactive) | 63.5 µM (inactive) | > 100 µM (inactive) |
| OC(CNc1ccccn1)c1ccccc1 (stereo not given) [PHENYRAMIDOL HYDROCHLORIDE] | > 100 µM (inactive) | > 100 µM (inactive) | > 100 µM (inactive) | > 100 µM (inactive) | > 100 µM (inactive) | > 100 µM (inactive) | > 100 µM (inactive) | > 100 µM (inactive) | > 100 µM (inactive) | > 100 µM (inactive) | 85.5 µM (inactive) | 63.1 µM (inactive) | > 100 µM (inactive) | 67.6 µM (inactive) | > 100 µM (inactive) | > 100 µM (inactive) | > 100 µM (inactive) | > 100 µM (inactive) | > 100 µM (inactive) | > 100 µM (inactive) |
